Assay results taken from patent US20080241870A1, “Composition For Creating an Artificial Bone Marrow Like Environment and Use Thereof” (NATIONAL CENTRE FOR CELL SCINECES, priority 2005, published 2008).

What was measured:
Assay type in all cases: cell-based, human
CD34+ cells [1] = assay: adhesion of CD34+ cells to ABME on coverslips; conditions: 10 ngml^-1, 18 hours; CD34+/MNC contact 1 hour; vs reference coverslip
Description: Mesenchyme cells were grown on a sterile 1 cm×1 cm glass coverslip to near confluence and were covered with a treatment medium containing 10 ngml^−1 TGF-β1 and were incubated for 18 hours in a humidified sterile atmosphere and 5% CO2. The coverslips were then washed with PBS, and the ABME thus created were covered with a suspension of 2×10^6 MNC or 2×10^5 CD34^+ cells in 0.2 ml of IMDM with 20% serum. After 1 hour at 37° C., the coverslips were washed with PBS and the cells were fixed and stained with a CD34^+ specific antibody (clone HPCA1, Becton Dickinson, USA). The number of CD34^+ cells attached were counted and compared to the number of similar cells that were attached in a parallel reference experiment where TGF-β1 was not used. […] It may be seen from FIGS. 6(d-f) that there is an increased adhesion of CD34^+ cells to mesenchymal cells when mesenchymal cells are treated with TGF-β1.

mesenchymal cells = assay: Hypoxy probe incorporation in ABME under normoxic conditions; conditions: 200 μM Hypoxy probe, 48 hours; FIG. 11b
Description: Mesenchymal cells were processed for ABME formation as per details given in Example 7(a) above using a biological modulator namely TGFbeta1 and were incubated with 200 μM Hypoxy probe (Chemicon, USA) for 48 hours. The cells were fixed and immuno-stained with an antibody specific for detection of the label (Chemicon).

mesenchyme cells = assay: SDF-1α release / in vitro homing of CD34+ SPC (conditioned medium of treated mesenchyme cells); conditions: 10 ngml^-1, 4 hours treatment, conditioned medium after 18 hours; vs untreated reference
Description: 5×10^5 mesenchyme cells were grown on a 35 mm diameter Petri dish (Becton Dickinson, USA) in IMDM containing 20% serum. After the cells were confluent, the medium was removed, the cells were washed 2× with Phosphate buffered saline (GIBCO-BRL) (PBS) and the medium was changed to treatment medium containing 10 ngml^−1 of TGFβ1 and the dishes were returned to standard cell culture environment at 37° C. in 5% CO2. After 4 hours, the treatment medium was removed, the cells were washed with PBS and were covered with 1 ml of IMDM containing 0.5% serum and incubation at 37° C. in 5% CO2 was continued. After 18 hours, the conditioned medium was collected and was assayed for its ability to support in vitro homing of CD34^+ SPC. In another parallel experiment, an equal number of mesenchymal cells were employed, where TGF-β1 was not used and the conditioned medium obtained from this experiment was used as a reference for comparison. […] As shown in FIGS. 6(a-b) untreated mesenchymal cells show no or marginal homing as compared to mesenchymal cells treated with TGF-β1. The homing could be modulated in this case either by adding suitable amounts of a neutralizing antibody to SDF-1α or to its receptor CXCR-4 to neutralize its effects on chemo-attraction of SPC or by destroying the gradient by exogenous addition of SDF1α indicating the specificity of the process.

CD34+ cells [2] = assay: self renewal: CD34+ cell number after 48 hours on ABME; Jagged1 expression
Description: Mesenchyme cells were grown on a sterile 1 cm×1 cm glass coverslip to near confluence and were covered with a treatment medium containing 10 ngml^−1 TGF-β1 and were incubated for 18 hours in a humidified sterile atmosphere and 5% CO2. The coverslips were then washed with PBS, and the ABME thus created were covered with a suspension of 2×10^5 CD34^+ cells in 0.2 ml of IMDM with 20% serum. The cells were washed after one hour and the bound cells were covered with medium with 20% serum containing 0.8% methyl cellulose and growth factors. The change in CD34^+ cell number after 48 hours was monitored with a CD34^+ specific antibody (clone HPCA1, Becton Dickinson, USA).

HumanTransforming Growth Factor beta1 [TGFβ1]
number of CD34+ cells attached to ABME (CD34+ cells [1]): significantly more number of CD34^+ cells attached
Hypoxy probe label incorporation (mesenchymal cells): high incorporation of the label
SDF-1α release from mesenchymal cells (mesenchyme cells): significantly more amounts of SDF-1α was released
CD34+ cell proliferation (CD34+ cells [2]; 10 ngml^-1, 18 hours, CD34+ number after 48 hours, vs no TGFβ1, FIG. 10b): supported more CD34^+ cell proliferation
Jagged1 amount in ABME (CD34+ cells [2]; compared to mesenchyme cells, FIG. 10c): significantly more amounts of the promoter of self renewal, Jagged1
